The source of these data is US4656180A, “Diamine derivatives and pharmaceutical preparations containing these compounds” (Ludwig Heumann & Co., GmbH, priority 1984, dated 1987).

For data set [1] the following is noted: therapeutic use; several daily doses of tablets required; cited from earlier work.
Data set [2] concerns the target T1, histamine-H2 receptors (Cavia porcellus, UniProt P47747).
T1 construct: in vitro on isolated guinea-pigs' atrium; from tissue; host or cells: isolated guinea-pig atrium (right atrium per b6)
Briefly: pA2-values in vitro on isolated guinea-pigs' atrium (H2-antagonistic activity). On the set-up: species or system guinea-pig. The text has this:
J. Pharmacol. Chemother. ", 27, 427 (1966) and Black et al, "Nature", 236, 385 (1971)].
One recognized method of determining the H2 -antagonistic activity is the determination of the pA2 -values in vitro on isolated guinea-pigs' atrium (see Ariens, Molecular Pharmacology, Volume 1, Academic Press, New York, 1964).

For orientation: Kb means the equilibrium dissociation constant of an antagonist, usually derived from a functional assay. Low values mean a more potent antagonist, high ones a less potent antagonist.

T1 sequence (P47747 whole entry): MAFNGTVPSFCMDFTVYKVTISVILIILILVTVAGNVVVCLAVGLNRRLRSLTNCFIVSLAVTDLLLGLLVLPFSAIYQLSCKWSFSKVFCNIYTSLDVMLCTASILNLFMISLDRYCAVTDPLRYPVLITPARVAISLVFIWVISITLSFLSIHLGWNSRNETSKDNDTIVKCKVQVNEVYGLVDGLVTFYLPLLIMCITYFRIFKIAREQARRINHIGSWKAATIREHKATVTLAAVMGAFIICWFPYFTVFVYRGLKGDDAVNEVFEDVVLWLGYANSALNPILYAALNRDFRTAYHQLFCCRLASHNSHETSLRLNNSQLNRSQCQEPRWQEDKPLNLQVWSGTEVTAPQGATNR

As for `CNC(=C[N+](=O)[O-])NCCSCc1ccc(CN(C)C)o1` [ranitidine], in data set [1], the half life entry is listed as “relatively short half life”.
For `CN/C(=N/CCSCc1nc[nH]c1C)NC#N` [Cimetidine], in data set [1], the half life result is reported as “relatively short half life”.
With `[O-][s+]1nc(NCC(O)COc2cccc(CN3CCCCC3)c2)c(NCC(O)COc2cccc(CN3CCCCC3)c2)n1` (stereo not drawn) [Example 4], in data set [2], the Kb is 7.24 nM.
